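Grown in 96-well plates, cells were treated for 48 hours with each compound at five concentrations. Insufficient inhibition: endpoint recorded as highest concentration tested. Here, GI50 denotes the concentration required for 50% inhibition of growth. TGI denotes the concentration required for complete inhibition of growth.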
Assays:
Assay in all cases: NCI anticancer screen, dose series, 48 h
OVCAR-4 ovarian = system: OVCAR-4 ovarian
COLO 205 colon = system: COLO 205 colon
NCI/ADR-RES ovarian = system: NCI/ADR-RES ovarian
EKVX NSCLC = system: EKVX NSCLC
MCF7 breast = system: MCF7 breast
ACHN renal = system: ACHN renal
SF-539 CNS = system: SF-539 CNS
RXF 393 renal = system: RXF 393 renal
HCT-116 colon = system: HCT-116 colon
OVCAR-5 ovarian = system: OVCAR-5 ovarian
MDA-MB-435 = system: MDA-MB-435
MDA-MB-231 breast = system: MDA-MB-231 breast
HT29 colon = system: HT29 colon
BT-549 breast = system: BT-549 breast
PC-3 prostate = system: PC-3 prostate
HS 578T breast = system: HS 578T breast
IGROV1 ovarian = system: IGROV1 ovarian
UACC-62 melanoma = system: UACC-62 melanoma
SNB-75 CNS = system: SNB-75 CNS
MALME-3M melanoma = system: MALME-3M melanoma
U251 CNS = system: U251 CNS
OVCAR-3 ovarian = system: OVCAR-3 ovarian
OVCAR-8 ovarian = system: OVCAR-8 ovarian
KM12 colon = system: KM12 colon
HOP-92 NSCLC = system: HOP-92 NSCLC
NCI-H460 lung = system: NCI-H460 lung
NCI-H23 lung = system: NCI-H23 lung
SK-OV-3 ovarian = system: SK-OV-3 ovarian
MOLT-4 leukemia = system: MOLT-4 leukemia
A549 NSCLC = system: A549 NSCLC
SNB-19 CNS = system: SNB-19 CNS
786-0 renal = system: 786-0 renal
SK-MEL-2 melanoma = system: SK-MEL-2 melanoma
HCC-2998 colon = system: HCC-2998 colon
UO-31 renal = system: UO-31 renal
LOX IMVI melanoma = system: LOX IMVI melanoma
A498 renal = system: A498 renal
SK-MEL-5 melanoma = system: SK-MEL-5 melanoma
RPMI-8226 leukemia = system: RPMI-8226 leukemia
SF-295 CNS = system: SF-295 CNS
HOP-62 NSCLC = system: HOP-62 NSCLC
K-562 leukemia = system: K-562 leukemia
TK-10 renal = system: TK-10 renal
NCI-H522 lung = system: NCI-H522 lung
HCT-15 colon = system: HCT-15 colon
SK-MEL-28 melanoma = system: SK-MEL-28 melanoma
NCI-H226 lung = system: NCI-H226 lung
HL-60(TB) leukemia = system: HL-60(TB) leukemia
SN12C renal = system: SN12C renal
UACC-257 melanoma = system: UACC-257 melanoma
SR leukemia = system: SR leukemia
M14 melanoma = system: M14 melanoma
T-47D breast = system: T-47D breast
CAKI-1 renal = system: CAKI-1 renal
CCRF-CEM leukemia = system: CCRF-CEM leukemia
DU-145 prostate = system: DU-145 prostate
SF-268 CNS = system: SF-268 CNS
SW-620 colon = system: SW-620 colon

SMILES: CC1C=CC(OC(=O)C(C)(O)CCC(O)(C(=O)OC2CC(O)C(C(C)C)CC2(C)O)C(C)C)(C(C)C)CC1 (stereo unspecified)
- GI50 (OVCAR-4 ovarian): 746 nM
- TGI (OVCAR-4 ovarian): 1710 nM
- GI50 (COLO 205 colon): 747 nM
- TGI (COLO 205 colon): 1610 nM
- GI50 (NCI/ADR-RES ovarian): 725 nM
- TGI (NCI/ADR-RES ovarian): 2220 nM
- GI50 (EKVX NSCLC): 618 nM
- TGI (EKVX NSCLC): 1410 nM
- GI50 (MCF7 breast): 182 nM
- TGI (MCF7 breast): 904 nM
- GI50 (ACHN renal): 322 nM
- TGI (ACHN renal): 949 nM
- GI50 (SF-539 CNS): 685 nM
- TGI (SF-539 CNS): 1350 nM
- GI50 (RXF 393 renal): 570 nM
- TGI (RXF 393 renal): 1350 nM
- GI50 (HCT-116 colon): 160 nM
- TGI (HCT-116 colon): 449 nM
- GI50 (OVCAR-5 ovarian): 665 nM
- TGI (OVCAR-5 ovarian): 1350 nM
- GI50 (MDA-MB-435): 521 nM
- TGI (MDA-MB-435): 1130 nM
- GI50 (MDA-MB-231 breast): 656 nM
- TGI (MDA-MB-231 breast): 1360 nM
- GI50 (HT29 colon): 599 nM
- TGI (HT29 colon): 1560 nM
- GI50 (BT-549 breast): 561 nM
- TGI (BT-549 breast): 1220 nM
- GI50 (PC-3 prostate): 676 nM
- TGI (PC-3 prostate): 1400 nM
- GI50 (HS 578T breast): 792 nM
- TGI (HS 578T breast): 4840 nM
- GI50 (IGROV1 ovarian): 232 nM
- TGI (IGROV1 ovarian): 640 nM
- GI50 (UACC-62 melanoma): 511 nM
- TGI (UACC-62 melanoma): 2790 nM
- GI50 (SNB-75 CNS): 542 nM
- TGI (SNB-75 CNS): 1790 nM
- GI50 (MALME-3M melanoma): 709 nM
- TGI (MALME-3M melanoma): 1450 nM
- GI50 (U251 CNS): 582 nM
- TGI (U251 CNS): 1320 nM
- GI50 (OVCAR-3 ovarian): 188 nM
- TGI (OVCAR-3 ovarian): 409 nM
- GI50 (OVCAR-8 ovarian): 835 nM
- TGI (OVCAR-8 ovarian): 2690 nM
- GI50 (KM12 colon): 689 nM
- TGI (KM12 colon): 1450 nM
- GI50 (HOP-92 NSCLC): 403 nM
- TGI (HOP-92 NSCLC): 1860 nM
- GI50 (NCI-H460 lung): 799 nM
- TGI (NCI-H460 lung): 1590 nM
- GI50 (NCI-H23 lung): 591 nM
- TGI (NCI-H23 lung): 1330 nM
- GI50 (SK-OV-3 ovarian): 799 nM
- TGI (SK-OV-3 ovarian): 4100 nM
- GI50 (MOLT-4 leukemia): 193 nM
- TGI (MOLT-4 leukemia): 861 nM
- GI50 (A549 NSCLC): 567 nM
- TGI (A549 NSCLC): 1390 nM
- GI50 (SNB-19 CNS): 1190 nM
- TGI (SNB-19 CNS): 16200 nM
- GI50 (786-0 renal): 681 nM
- TGI (786-0 renal): 1370 nM
- GI50 (SK-MEL-2 melanoma): 769 nM
- TGI (SK-MEL-2 melanoma): 1640 nM
- GI50 (HCC-2998 colon): 2700 nM
- TGI (HCC-2998 colon): 8910 nM
- GI50 (UO-31 renal): 329 nM
- TGI (UO-31 renal): 1020 nM
- GI50 (LOX IMVI melanoma): 73.4 nM
- TGI (LOX IMVI melanoma): 142 nM
- GI50 (A498 renal): 844 nM
- TGI (A498 renal): 2030 nM
- GI50 (SK-MEL-5 melanoma): 377 nM
- TGI (SK-MEL-5 melanoma): 1030 nM
- GI50 (RPMI-8226 leukemia): 161 nM
- TGI (RPMI-8226 leukemia): 711 nM
- GI50 (SF-295 CNS): 657 nM
- TGI (SF-295 CNS): 1410 nM
- GI50 (HOP-62 NSCLC): 641 nM
- TGI (HOP-62 NSCLC): 1660 nM
- GI50 (K-562 leukemia): 91.6 nM
- TGI (K-562 leukemia): 218 nM
- GI50 (TK-10 renal): 754 nM
- TGI (TK-10 renal): 1500 nM
- GI50 (NCI-H522 lung): 576 nM
- TGI (NCI-H522 lung): 1360 nM
- GI50 (HCT-15 colon): 235 nM
- TGI (HCT-15 colon): 869 nM
- GI50 (SK-MEL-28 melanoma): 2100 nM
- TGI (SK-MEL-28 melanoma): 8270 nM
- GI50 (NCI-H226 lung): 716 nM
- TGI (NCI-H226 lung): 2480 nM
- GI50 (HL-60(TB) leukemia): 655 nM
- TGI (HL-60(TB) leukemia): 1680 nM
- GI50 (SN12C renal): 149 nM
- TGI (SN12C renal): 602 nM
- GI50 (UACC-257 melanoma): 911 nM
- TGI (UACC-257 melanoma): 2560 nM
- GI50 (SR leukemia): 263 nM
- TGI (SR leukemia): 46300 nM
- GI50 (M14 melanoma): 745 nM
- TGI (M14 melanoma): 1810 nM
- GI50 (T-47D breast): 292 nM
- TGI (T-47D breast): 1810 nM
- GI50 (CAKI-1 renal): 594 nM
- TGI (CAKI-1 renal): 1200 nM
- GI50 (CCRF-CEM leukemia): 244 nM
- TGI (CCRF-CEM leukemia): 901 nM
- GI50 (DU-145 prostate): 272 nM
- TGI (DU-145 prostate): 608 nM
- GI50 (SF-268 CNS): 645 nM
- TGI (SF-268 CNS): 1640 nM
- GI50 (SW-620 colon): 604 nM
- TGI (SW-620 colon): 1410 nM
